Assay results published in patent US20230105108A1, “COMPOUNDS FOR THE TREATMENT OF BACTERIAL INFECTIONS AND POTENTIATION OF ANTIBIOTICS” (GEORGIA STATE UNIVERSITY RESEARCH FOUNDATION, INC., priority 2019, published 2023).
Counter-ions that a name gives are not always drawn. Like-named read-outs stand apart in the source and are kept apart here. Marks after values point to notes of the source that are not given here.

Tests used:
[1] = IC50 of Table 7 (cell line not stated); assay type: cell-based
[2] = system: E. coli (ATCC 25922); experiment: MIC determination, sensitization fold and FIC index on E. coli; assay type: cell-based; details: for MIC: Escherichia coli, ATCC25922, 24 h
Procedure, shortened: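 MICs read by OD600 as >90% growth inhibition after two-fold rifampicin dilutions, 5×10^5 CFU/ml E. coli, 24 h, 37 °C, shaken, cation-adjusted Mueller Hinton II broth.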

[3] = system: H9c2 (ATCC CRL-1446) cells; experiment: Cytotoxicity in H9c2 cells (CCK-8); assay type: cell-based; details: H9c2 cell line
Procedure, shortened: (§1)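 H9c2 cells were grown in DMEM with 10% FBS, seeded the day before, and exposed to a range of di-amidine concentrations for 24 h at 37 °C, 5% CO2. Viability was read by CCK-8 after 3 h at 37 °C as absorbance at 450 nm.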

[4] = system: NIH3T3 cells; experiment: Cytotoxicity on mammalian cells (CCK-8), NIH3T3; assay type: cell-based; details: 3T3 cell line; 24 h
Procedure, shortened: (§2)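 Cells seeded a day ahead to ~80% confluency, exposed to varied compound concentrations for 24 h at 37° C, 5% CO2. CCK-8 added for a further 2 h and OD 450 nm read; viability expressed as percent of untreated control.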

[5] = system: M. smegmatis; experiment: MIC on mycobacteria; assay type: cell-based, Mycobacterium smegmatis; details: Mycolicibacterium smegmatis, read-out: MIC on mycobacteria
[6] = system: HEK293 cells; experiment: Cytotoxicity on mammalian cells (CCK-8), HEK293; assay type: cell-based; details: for CC50: HEK293 cell line, 24 h; for IC50: Homo sapiens, HEK293
Procedure, shortened: as §2

[7] = Cytotoxicity in H9c2 cells (CCK-8); assay type: cell-based; details: rat, H9c2 cells; H9c2 cell line
Procedure, shortened: as §1

[8] = system: B. subtilis; experiment: MIC determination and sensitization fold on B. subtilis; assay type: cell-based; details: for Sensitization fold / MIC: B. subtilis; for Sensitization fold: erythromycin; for MIC: Bacillus subtilis, 24 h, compound alone, read-out: MIC
[9] = system: MRSA (ATCC 33592); experiment: MIC determination and sensitization fold on MRSA; assay type: cell-based, methicillin-resistant Staphylococcus aureus; details: MRSA, rifampicin
[10] = system: NDM-1 expressing E. coli strain; experiment: microbe, parasite or virus in culture; assay type: cell-based; details: NDM-1 expressing E. coli towards the antibiotic
[11] = system: K. pneumoniae (43816); experiment: MIC, sensitization fold and FIC index on K. pneumoniae; assay type: cell-based
[12] = system: A. baumannii (ATCC 17978); experiment: MIC, sensitization fold and FIC index on A. baumannii; assay type: cell-based
[13] = system: E. coli; experiment: Ex vivo skin burn infection model, wild-type E. coli; details: human skin burn, hypromellose gel, 24 hours; 4‰ (w/w) novobiocin, 1.5‰ MD-124
Procedure: To achieve topical application, compounds were formulated as hypromellose gel. […] After that, skin was loaded with hypromellose gel with different antibiotics and cultured at 37° C. for 24 hours. After 24 hours incubation, the skin sample was homogenized and the supernatants were serially diluted and plated on agar plates, from which bacterial counts on the skin was calculated. […] 1‰ polymyxin B hypromellose gel was used as positive control.

[14] = system: E. coli (lipid A part of LPS); experiment: Dansyl-PMBN displacement assay; assay type: binding; details: E. coli with 10 μM Dansyl-PMBN; sensitizer 0 to 200 μM
Procedure: Panel (C) depicts a Dansyl-PMBN displacement assay. […] The fluorescent intensity of 10 μM Dansyl-PMBN in HEPES buffer was recorded as baseline F0. Fluorescent intensity/%=(F1−Fx)/(F1−F0). […] All results are triplicates.
Dansyl-PMBN displacement assay. Dansyl-PMBN was synthesized according to literature procedure. Dansyl-PMBN was dissolved in H2O to make 500 μM stock. Bacterial sensitizers were dissolved in ethanol to make 10 mM stock solutions. […] The E. coli stock was centrifuged at 3000 g for 10 min, washed with HEPES buffer (pH=7.2) and then centrifuged again to obtain bacteria pallet. The pallet was then gently resuspended in HEPES buffer to obtain a E. coli suspension with OD600 about 0.3. The experiment was performed on 96-well plates. Each well was supplied with 100 μl coli suspension with 10 μM Dansyl-PMBN, then to each well, different concentrations of bacterial sensitizers were added to achieve a final concentration ranging from 0 to 200 μM.
Mg^2+ can bridge between adjacent lipid A and enhance the membrane integrity. […] This phenomenon was also observed on MD-100. The culture medium for E. coli is Muller Hinton Broth (Cation adjusted), which already has at least 0.5 mM Mg^2+, so the “zero concentration point of Mg^2+” in FIG. 4 represents the amount of exogenous Mg^2+, not the total Mg^2+ in the culture medium. […] A fluorescent conjugate of a polymyxin-B derivative (Dansyl-PMBN, Scheme 3), which would show increased fluorescent intensity after binding to the lipid A part of LPS, was used to further probe this issue. In the presence of another component that can also binding to lipid A, Dansyl-PMBN would be replaced, leading to decreased fluorescent intensity.

[15] = system: E. coli; experiment: Lysozyme assay (outer membrane disruption); assay type: cell-based; details: 50 μg/ml lysozyme, 50 μg/ml sensitizer, 10 min
Procedure: Lysozyme assay to evaluate the disruption of Gram-negative bacteria out membrane by bacterial sensitizers. Lysozyme assay was performed based on literature reported method. E. coli was cultured in Mueller Hinton II cation-adjusted broth for overnight, centrifuged at 3000 g for 10 min, washed with HEPES buffer (pH=7.2) and then centrifuged again to obtain bacteria pallet. The pallet was then gently resuspended in HEPES buffer with 5 mM NaCN to obtain an E. coli suspension with OD600 between 0.8˜1.0. On a 96-well plate, each well was supplied with 100 μl lysozyme solution (100 μg/ml) containing 50 or 100 μg/ml bacterial sensitizers in HEPES buffer. To each well was added 100 μl E. coli suspension. The final concentration of lysozyme was 50 μg/ml. The plate was incubated at room temperature for 10 min and the OD600 was recorded. E. coli was also incubated with bacterial sensitizers in the absence of lysozyme to test if bacterial sensitizers would directly induce bacterial lysis. E. coli that was incubated with lysozyme alone or E. coli without any treatment were also used as negative control.

[16] = E. coli, rifampicin, 10 μg/ml bacterial sensitizer
[17] = E. coli, compound alone, read-out: MIC
[18] = E. coli, rifampicin, compound at 25 μM
[19] = 10 μM compound, rifampicin as the antibiotic (Table 6)
[20] = E. coli, rifampicin, compound at 10 μM

## N=C(N)Nc1ccc(-c2ccc(-c3nc4ccc(NC(=N)N)cc4[nH]3)o2)cc1 [DB704]
[1]
  IC50: 100 µM
[2]; [16]
  Sensitization fold: 16^a fold

## N=C(N)N/N=C/c1ccc(-c2ccc(-c3ccc(/C=N/NC(=N)N)cc3)s2)cc1 [DB1079]
[1]
  IC50: 12 µM
[2]; E. coli, rifampicin, 5 μg/ml bacterial sensitizer
  Sensitization fold: 64^b fold

## N=C(N)c1ccc(-c2ccc(-c3ccc(C(=N)N)cc3)[se]2)cc1 [DB1213]
[1]
  IC50: 50 µM
[2]; [16]
  Sensitization fold: 32^a fold

## N=C(N)c1ccc(OCc2ccc(-c3ccc(C(=N)N)cc3)cc2)cc1 [DB2542]
[2]; [17]
  MIC: 50 µM
[3]
  CC50: 100 µM

## N=C(N)c1ccc(OCc2cccc(COc3ccc(C(=N)N)cc3F)c2F)c(F)c1 [DB2558, 1,3-Bis {(4-amidino-2-fluoro)-phenoxymethyl}-2-fluorobenzene dihydrochloride]
[4]
  CC50: 100 µM
[5]; M. smegmatis
  MIC: 6 to 12 µM
[6]
  CC50: 100 µM
[2]; E. coli, rifampicin, compound at 12 μM
  Sensitization fold: 4-fold at 12 μM.
[2]; [18]
  Sensitization fold: 8-fold at 25 μM;
[2]; [17]
  MIC: 50 µM
[7]
  CC50 at 24 h: 50 µM

## N=C(N)c1ccc(OCc2cccc(COc3ccc(C(=N)N)cc3)c2)cc1 [DB2559, 1,3-Bis {(4-amidino)-phenoxymethyl}-benzene dihydrochloride]
[5]
  MIC: 12 µM
[2]; [18]
  Sensitization fold: 8-fold at 25 μM;
[2]; E. coli, rifampicin, compound at 50 μM
  Sensitization fold: 16-fold at 50 μM;
[2]
  MIC: 100 µM
[8]; compound at 6 μM
  Sensitization fold: 4-fold at 6 μM
[8]; compound at 12 μM
  Sensitization fold: 8-fold at 12 μM;
[8]
  MIC: 25 µM
[3]
  CC50: 100 µM

## COc1cc(C(=N)N)ccc1OCc1cc(C)cc(COc2ccc(C(=N)N)cc2OC)c1 [MD-103, 4,4′-(((5-methyl-1,3-phenylene)bis(methylene))bis(oxy))bis(3-methoxybenzimidamide) dihydrochloride]
[4]
  CC50: 100 µM
[5]
  MIC: 12.5 µM
[6]
  CC50: 100 µM
  IC50: 100 µM
[2]; [19]
  Sensitization fold: 2 fold
[2]; [20]
  Sensitization fold: 2-fold at 10 μM
[2]; [18]
  Sensitization fold: 4-fold at 25 μM
[2]
  MIC: 50 µM
[9]; compound at 6 μM
  Sensitization fold: 2 to 4-fold at 6 μM
[9]; compound at 12 μM
  Sensitization fold: 8 to 16-fold at 12 μM,
[7]
  CC50 at 24 h: > 100 µM

## Cc1cc(OCc2ccc(C(=N)N)cc2)cc(OCc2ccc(C(=N)N)cc2)c1 [MD-109, 4,4′-(((5-methyl-1,3-phenylene)bis(oxy))bis(methylene))dibenzimidamide dihydrochloride]
[4]
  CC50: 100 µM
[6]
  CC50: 100 µM
  IC50: 100 µM
[2]; [19]
  Sensitization fold: 8 fold
[2]; [20]
  Sensitization fold: 8-fold at 10 μM
[2]; [18]
  Sensitization fold: 32-fold at 25 μM
[2]
  MIC: 100 µM
[8]; compound at 12 μM
  Sensitization fold: 32-fold at 12 μM
[8]
  MIC: 50 µM

## Cc1cc(COc2ccc(C(=N)N)cc2F)cc(COc2ccc(C(=N)N)cc2F)c1 [MD-120, 4,4′-(((5-methyl-1,3-phenylene)bis(methylene))bis(oxy))bis(3-fluorobenzimidamide) dihydrochloride]
[4]
  CC50: 100 µM
[6]
  CC50: 100 µM
  IC50: 100 µM
[2]; [19]
  Sensitization fold: 32 fold
[2]; [20]
  Sensitization fold: 32-fold at 10 μM
[2]; [18]
  Sensitization fold: 64-fold at 25 μM
[2]
  MIC: 100 µM
[9]; compound at 6 μM
  Sensitization fold: 4-fold at 6 μM

## Cc1cc(COc2ccc(NC(=N)N)cc2)cc(COc2ccc(NC(=N)N)cc2)c1 [MD-125, 1,1′-((((5-methyl-1,3-phenylene)bis(methylene))bis(oxy))bis(4,1-phenylene)) diguanidine di(trifluoroacetate)]
[4]
  CC50: 100 µM
[6]
  CC50: 100 µM
  IC50: 100 µM
[2]; [19]
  Sensitization fold: 8 fold
[2]; [20]
  Sensitization fold: 8-fold at 10 μM
[2]; [18]
  Sensitization fold: 32-fold at 25 μM
[2]
  MIC: 100 µM
[3]
  CC50: 100 µM

## CO[C@@H]1[C@@H](OC(N)=O)[C@@H](O)[C@H](Oc2ccc3c(O)c(NC(=O)c4ccc(O)c(CC=C(C)C)c4)c(=O)oc3c2C)OC1(C)C [Novobiocin, reference compound]
[10]
  Sensitization fold with 5 μg/ml MD-124: 32 fold
[2]; E. coli towards the antibiotic, MD-124 5 μg/ml
  Sensitization fold: 64 fold
[2]; E. coli, MD-124 concentration 5 μg/ml
  MIC of AB with MD-124: 1.6 µg/mL
[2]; E. coli (wild type), antibiotic alone, read-out: MIC of AB only
  MIC: 100 µg/mL
[11]; K. pneumoniae
  MIC of AB with 5 μg/ml MD-124: 6.4 µg/mL
[11]; K. pneumoniae towards the antibiotic
  Sensitization fold with 5 μg/ml MD-124: 32 fold
[12]; A. baumannii towards the antibiotic
  Sensitization fold with 5 μg/ml MD-124: 32 fold
[12]; A. baumannii, checkerboard assay
  FIC index between MD-124 and antibiotic: 0.20
[8]; B. subtilis towards the antibiotic
  sensitization fold with 5.5 μg/ml DB2560: 4 fold
[13]
  E. coli growth inhibition / bacterial load vs vehicle group: neither 4‰ (w/w) novobiocin nor 1.5‰ MD-124 themselves achieved significant E. coli growth inhibition

## N=C(N)c1ccc(OCCCCCOc2ccc(C(=N)N)cc2)cc1 [pentamidine, reference compound]
[2]; E. coli, rifampicin, 20 μg/ml bacterial sensitizer
  Sensitization fold: 4 fold
[14]
  displacement of Dansyl-PMBN (fluorescent intensity): able to displace Dansyl-PMBN although not as much as MD-124
[15]
  bacterial lysis by lysozyme in the presence of sensitizer: led to bacterial lysis
